Source: patent US12114987B2, “Perception loss detection” (OXFORD UNIVERSITY INNOVATION LIMITED, priority 2012, dated 2024)

Test system: slow wave oscillations in the scalp electroencephalogram
Source text: Multiple electrodes, including Magnetic Resonance (hereinafter “MR”) compatible 32 channel electroencephalography (hereinafter “EEG”) caps (BrainCap MR, Easycap GmbH, Herrsching, Germany) are used in the illustrated example for EEG acquisition.
Amplifiers are connected in the illustrated example using MR-safe fibre optic cables to a universal serial bus (USB) adaptor and then to a laptop computer (or other recording and EEG processing medium), which includes the processor 18 and the database 19. The laptop simultaneously records the timings of fMRI volumes (gradient onset markers), stimuli and button presses. For the paradigm in FIG. 5, samples of the electrical signals are acquired at 5000 Hz and initially referenced to channel CPz. The amplification hardware imposes a highpass filter of 0.1 Hz and a lowpass filter of 250 Hz on acquisition. The acquisition software applies a highpass filter of 0.5 Hz and a lowpass filter of 70 Hz as well as a notch filter of 50 Hz. […]
For time-frequency analysis, the frequency power spectrum over time within the 0.5-30 Hz range is calculated using a multitaper spectral analysis (using Chronux®) with window size=3 s and step size=4s. Phasic changes in EEG absolute and relative power in the specific frequency bands of interest, i.e. beta (15-30 Hz), alpha (9-14 Hz), theta (4-8 Hz) and slow wave (0.5-1.5 Hz) bands, are calculated. […]

`CC(C)c1cccc(C(C)C)c1O` [propofol] was tested, and the “peak absolute power of slow wave oscillations (0.5-1.5 Hz band), range between subjects” value (16 subjects, gradual propofol administration, peak propofol level 4.0 mcg ml−1, scalp EEG) was 10.84-83.78 μV2 and the “activity of slow wave oscillations in the scalp electroencephalogram with increasing doses” value (after the human has lost verbal responsiveness, increasing doses of propofol) was “reaches a maximum or saturation point”.
